Results as given in US10155810B2, “Provasopressin antagonists and uses thereof” (Woomera Therapeutics, Inc., priority 2011, dated 2018).

System: recurrent H82 SCLC cells xenografts
Assay: H82 SCLC xenograft, combination with cyclophosphamide
Assay type: in vivo, nu/nu mice
Settings: cyclophosphamide 50 mg/kg daily for 3 days, then 100 μg MAG-1 daily for 11 days, i.p.
Procedure: Three groups of nu/nu mice (8 animal per group) were injected with 1×10^7 recurrent H82 SCLC cells per mouse s.c. on the right flank, and the tumors were allowed to grow to an average of about 300 mm^3 in about 14 days. All treatment was carried out by injection intraperitoneally.

## O=P1(N(CCCl)CCCl)NCCCO1 (stereo not shown) [cyclophosphamide]
  efficacy of combined therapy on tumor growth: synergistic efficacy
